The text below walks through data of publication PMC12603070, “A high-throughput screening approach to discover potential colorectal cancer chemotherapeutics: repurposing drugs to identify novel disruptors of 14-3-3 proteins” (Cell Death & Disease, 2025).

One assay concerns the target T1, His-14-3-3ζ (Homo sapiens, UniProt P63104).
T1 construct: made in house; host or cells: Escherichia coli BL21 LOBSTR-RIL
T1 sequence (P63104 1-245): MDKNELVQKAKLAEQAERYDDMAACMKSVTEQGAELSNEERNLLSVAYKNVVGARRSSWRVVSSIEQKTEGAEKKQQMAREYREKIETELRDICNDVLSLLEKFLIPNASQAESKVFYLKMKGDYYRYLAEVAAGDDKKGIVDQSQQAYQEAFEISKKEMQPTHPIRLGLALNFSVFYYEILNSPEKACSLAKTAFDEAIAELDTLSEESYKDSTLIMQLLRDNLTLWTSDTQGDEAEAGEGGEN
The assay can be described thus: Surface plasmon resonance (SPR) on immobilized His-14-3-3ζ. Type of assay: binding. The procedure:
The published protocol of Higuchi & Ottmann as followed with modifications to express 14-3-3ζ [44]. Escherichia coli BL21 LOBSTR-RIL cells were transformed with a plasmid encoding His-14-3-3ζ. The transformed cells were grown in TB medium containing appropriate antibiotic at 37 °C with shaking at 200 rpm until the culture reached an optical density of 0.6–0.8 at 600 nm (OD600). Protein expression was induced by the addition of isopropyl β-D-1-thiogalactopyranoside to a final concentration of 0.4 mM. Subsequently, the temperature was decreased to 16 °C and the culture incubated for another 16 h. Cells were harvested by centrifugation at 7000 × g for 20 min at 21 °C. The supernatant was discarded, and the cell pellet containing 14-3-3ζ was mixed and resuspended in lysis buffer (50 mM Tris, pH 7.80), 500 mM NaCl, 5 mM imidazole, 5% glycerol, 1 mM PMSF & 1 mM Benzamidine. Cells were lysed by sonication on ice using a probe sonicator (20 cycles of 10 s on, 20 s off, amplitude 70%). The lysate was centrifuged at 30,000 × g for 30 min at 4 °C to remove cell debris. The supernatant was collected for further purification. The 14-3-3ζ was isolated from the lysate by affinity chromatography (Ni-NTA beads, Qiagen). For further purification, the eluant was subjected to size exclusion chromatography using a Superdex 75 gel filtration column (HiLoad 16/600, GE Healthcare), pre-equilibrated with SEC buffer (20 mM Tris, pH 7.5, 150 mM NaCl, 1 mM TCEP). The protein solution was concentrated by ultrafiltration, flash frozen, and stored at −80 °C.
The general protocol for evaluating 14-3-3ζ was adapted from Hartman et al. and modified for our instrument and sensors. The SPR experiments were performed using a Open surface plasmon resonance instrument (OpenSPR^TM, Nicoya, Kitchener-Waterloo, Canada), and high sensitivity-nitrilotriacetic acid (HS-NTA) sensors. The sensor chip surface was first activated with 40 mM of NiCl2 at a flow rate of 20 μL/min using 20 mM HEPES pH 7.8, 150 mM NaCl and 1% DMSO as the running buffer. All running buffers were filtered and degassed prior to use. 100 μg/mL His-14-3-3ζ protein in 20 mM HEPES pH 7.8, 150 mM NaCl and 1% DMSO was injected at 8 μL/min flow rate for 800 s contact time and immobilized until the instrument registered 2900–3500 RU (activation and protein immobalization spectrograms are provided as Supplementary Fig. 10). Drugs were dissolved in DMSO and were diluted with 20 mM HEPES pH 7.8, 150 mM NaCl (final DMSO concentration of 1% v/v) and were injected at a flow rate of 50 μL/min. Single-cycle kinetics were applied for KD evaluation and binding affinity using TraceDrawer v.1.8.1 (Ridgeview Instruments AB).

The target in the next assay is T2, 14-3-3ζ (Homo sapiens, UniProt P63104).
T2 construct: made in house; host or cells: Escherichia coli BL21 LOBSTR-RIL
T2 sequence (P63104 1-245): T1 sequence (P63104 1-245)
The assay is described as follows: Isothermal titration calorimetry (ITC) with purified 14-3-3ζ. The class given is binding. The conditions noted are these: 750-1,000 μM ligand, 70 μM protein, 1-4% DMSO. The protocol:
application to isothermal titration calorimetry (ITC) studies.
ITC experiments were performed, but the solubility incompatibility gave unclear data, with a […]
All ITC experiments were conducted at 750-1,000 μM of the ligand (in the syringe: titrant), with 70 μM of protein in the cell: titrand); each injection introduced approximately 4 nmol of ligand. All experiments were conducted at 1 -4% DMSO based on drug’s solubility. […]

For the molecule `CCCCCCOC(=O)c1ccc(Nc2c([N+](=O)[O-])cc(C(=O)O)cc2[N+](=O)[O-])cc1` [BV01, 4-((4-((hexyloxy)carbonyl)phenyl)amino)-3,5-dinitrobenzoic acid], the “Bmax ([Signal (RU)])” value at His-14-3-3ζ (SPR curve at 0.005 mM ligand) is 100.98 RU; on His-14-3-3ζ (SPR curve at 0.007 mM ligand) it was 147.7 RU; on His-14-3-3ζ (SPR curve at 0.03 mM ligand), 198.6 RU; at His-14-3-3ζ (SPR curve at 0.05 mM ligand), 257.38 RU; at His-14-3-3ζ (SPR curve at 0.07 mM ligand), 320.07 RU. Moreover, the kd on His-14-3-3ζ (SPR dissociation rate, value repeated per curve) worked out at 0.0112 s⁻¹. Further, at His-14-3-3ζ (SPR fit parameter, per curve), the “BI ([Signal (RU)])” value was 0.1 RU. On His-14-3-3ζ (SPR, immobilized His-14-3-3ζ, single-cycle kinetics, 1% DMSO), this molecule came in with a Kd of 6.32 µM. Moreover, on His-14-3-3ζ (pH 7.8, read-out: ka), the kon was determined as 1770 M⁻¹ s⁻¹. The “Binding by ITC” value at 14-3-3ζ was “weak sign of binding”.

One may read the Kd as the free concentration of one partner at which half of the binding sites on the other are occupied at equilibrium, for simple one-to-one binding.
